16 compounds from patent US8710233B2 (Gruenenthal GmbH, priority 2005, dated 2014) can be followed below.

pIC50, pKi: −log10 of the molar value. Read-outs that look alike come from different tables or passages of the source.

Type in all cases: cell-based
One assay concerns the target VR1/TRPV1 receptor (Homo sapiens, UniProt Q8NER1). The assay can be described thus: IC50 (human) after pH stimulus. To be noted: for inhibition at 1 µM: ne = no effect; for inhibition at 1 µM / inhibition at 0.1 µM: read-out: inhibition in percent, IC50 (human) after pH stimulus; for pIC50: table 4.
Assay [1] has as its target T1, vanilloid receptor 1 (VR1/TRPV1) of the rat species (Rattus norvegicus, UniProt O35433).
T1 construct: The spinal column is removed from decapitated rats; from tissue; host or cells: primary cells dissociated from rat dorsal root ganglia
Put plainly: FLIPR Ca2+ influx assay on rat dorsal root ganglia cells (pharmacological method I). As to conditions: table 4, capsaicin. In short, it runs like this: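 Primary rat dorsal root ganglion cells loaded with 2 μM Fluo-4, Ca2+ influx read on FLIPR as peak fluorescence. Triplicates, at least 3 independent experiments.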

The target in a further assay is T2, vanilloid receptor (VR1) (Homo sapiens, UniProt Q8NER1).
T2 construct: expressed in transfected cells; host or cells: CHO K1 cells (ECACC), stably transfected
The assay can be described thus: FLIPR Ca2+ influx assay on CHO K1 cells transfected with the VR1 gene (pharmacological method II). As to conditions: table 4; capsaicin; read-out: Ki (human) Cap.

T1 sequence (O35433 whole entry): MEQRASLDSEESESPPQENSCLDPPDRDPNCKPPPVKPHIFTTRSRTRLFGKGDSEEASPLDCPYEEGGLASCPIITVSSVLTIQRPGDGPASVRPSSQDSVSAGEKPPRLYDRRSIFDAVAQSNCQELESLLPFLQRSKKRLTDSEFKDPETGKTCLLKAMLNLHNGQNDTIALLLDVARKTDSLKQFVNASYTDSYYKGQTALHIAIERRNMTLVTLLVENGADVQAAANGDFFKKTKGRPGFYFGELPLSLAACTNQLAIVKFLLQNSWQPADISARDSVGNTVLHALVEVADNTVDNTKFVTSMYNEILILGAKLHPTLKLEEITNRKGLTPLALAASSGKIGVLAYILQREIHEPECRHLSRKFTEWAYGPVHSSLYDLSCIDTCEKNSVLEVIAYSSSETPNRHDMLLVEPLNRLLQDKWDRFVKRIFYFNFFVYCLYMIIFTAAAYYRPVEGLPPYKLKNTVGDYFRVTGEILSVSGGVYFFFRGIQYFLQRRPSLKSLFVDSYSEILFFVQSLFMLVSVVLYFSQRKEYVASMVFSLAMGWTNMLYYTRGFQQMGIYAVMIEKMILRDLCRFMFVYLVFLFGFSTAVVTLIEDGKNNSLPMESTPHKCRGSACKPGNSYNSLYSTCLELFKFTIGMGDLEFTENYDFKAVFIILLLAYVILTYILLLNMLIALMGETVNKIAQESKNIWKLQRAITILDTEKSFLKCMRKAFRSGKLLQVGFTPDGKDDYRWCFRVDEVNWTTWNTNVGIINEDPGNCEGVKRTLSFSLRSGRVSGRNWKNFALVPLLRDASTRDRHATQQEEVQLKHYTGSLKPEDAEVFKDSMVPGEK
Sequence of VR1/TRPV1 receptor (Q8NER1 whole entry): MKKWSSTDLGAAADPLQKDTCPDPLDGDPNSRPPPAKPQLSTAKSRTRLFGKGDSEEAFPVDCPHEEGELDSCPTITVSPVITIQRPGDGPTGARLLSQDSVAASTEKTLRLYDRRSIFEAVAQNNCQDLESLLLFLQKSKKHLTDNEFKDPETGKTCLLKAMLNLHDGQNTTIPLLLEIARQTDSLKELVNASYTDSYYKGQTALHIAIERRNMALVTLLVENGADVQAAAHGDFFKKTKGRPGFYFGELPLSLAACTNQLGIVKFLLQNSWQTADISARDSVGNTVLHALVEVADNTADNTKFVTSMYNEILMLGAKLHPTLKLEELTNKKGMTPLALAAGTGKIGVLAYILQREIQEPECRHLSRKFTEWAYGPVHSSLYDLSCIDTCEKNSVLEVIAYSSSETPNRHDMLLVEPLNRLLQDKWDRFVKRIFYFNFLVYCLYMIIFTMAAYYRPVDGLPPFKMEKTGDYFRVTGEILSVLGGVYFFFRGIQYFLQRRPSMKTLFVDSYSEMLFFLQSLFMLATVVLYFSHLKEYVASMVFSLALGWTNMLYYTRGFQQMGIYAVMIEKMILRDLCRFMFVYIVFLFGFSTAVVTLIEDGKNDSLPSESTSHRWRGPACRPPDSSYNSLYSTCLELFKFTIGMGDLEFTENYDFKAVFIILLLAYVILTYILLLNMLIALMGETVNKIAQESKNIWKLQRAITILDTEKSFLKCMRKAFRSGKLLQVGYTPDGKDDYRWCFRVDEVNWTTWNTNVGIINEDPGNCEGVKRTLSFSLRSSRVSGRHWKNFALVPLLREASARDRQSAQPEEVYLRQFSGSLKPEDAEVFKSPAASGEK
T2 sequence (Q8NER1 whole entry): as above

For orientation: inhibition means how much of the control response was suppressed. The pKi is the Ki on a negative log10 scale, so that one unit is a factor of ten. In the case of `Cc1cc(C(C)C(=O)NCc2ccc(C(F)(F)F)nc2N2CCC(C)CC2)ccc1NS(C)(=O)=O` (stereo not shown) [Example 196, 2-(4-methylsulfonamido-3-methyl-phenyl)-N-(4-methyl-6′-trifluoromethyl-3,4,5,6-tetrahydro-2H-[1,2′]bipyridinyl-3′-ylmethyl)-propionamide], the inhibition at 1 µM on VR1/TRPV1 receptor stood at 41%. Moreover, the negative logarithm of the Ki (pKi) in assay [1] (read-out: Ki (rat) Cap.) is 9.40; on vanilloid receptor (VR1) it was 9.22.
As a reminder, the pIC50 is the negative decadic logarithm of the IC50, by convention in mol/L. A lower pIC50 goes with a large IC50. As to `CCC1CCN(c2nc(C(F)(F)F)ccc2CNC(=O)C(C)c2ccc(NS(C)(=O)=O)c(F)c2)CC1` (stereo not shown) [Example 197, N-(4-ethyl-6′-trifluoromethyl-3,4,5,6-tetrahydro-2H-[1,2′]bipyridinyl-3′-ylmethyl)-2-(3-fluoro-4-methylsulfonamido-phenyl)-propionamide], the pIC50 against VR1/TRPV1 receptor was 7.01. The results for the pKi (in assay [1] (read-out: Ki (rat) Cap.); at vanilloid receptor (VR1)) were 9.40 and 8.82, respectively.
For `CC(C(=O)NCc1ccc(C(F)(F)F)nc1Oc1ccccc1)c1ccc(NS(C)(=O)=O)c(F)c1` (stereo not shown) [Example 198, 2-(3-fluoro-4-methylsulfonamido-phenyl)-N-(2-phenoxy-6-trifluoromethyl-pyridin-3-ylmethyl)-propionamide], at VR1/TRPV1 receptor, the inhibition at 0.1 µM was determined as 11% and the inhibition at 1 µM stood at 31%. Further, the pKi in assay [1] (Ki (rat) Cap.) was 9.05. At vanilloid receptor (VR1), the pKi was 8.19.
As to `COCC1CCN(c2nc(C(F)(F)F)ccc2CNC(=O)C(C)c2ccc(NS(C)(=O)=O)c(F)c2)CC1` (stereo not shown) [Example 199, 2-(3-fluoro-4-methylsulfonamido-phenyl)-N-(4-methoxymethyl-6′-trifluoromethyl-3,4,5,6-tetrahydro-2H-[1,2′]bipyridinyl-3′-ylmethyl)-propionamide], the pIC50 on VR1/TRPV1 receptor was 7.51. Also, the pKi in assay [1] (read-out: Ki (rat) Cap.) was 8.80; on vanilloid receptor (VR1) it was 8.85.
Compound `CC(C(=O)NCc1ccc(C(F)(F)F)nc1N1CCC(c2ccc(F)cc2)CC1)c1ccc(NS(C)(=O)=O)c(F)c1` (stereo not shown) [Example 200, 2-(3-fluoro-4-methylsulfonamido-phenyl)-N-[4-(4-fluoro-phenyl)-6′-trifluoromethyl-3,4,5,6-tetrahydro-2H-[1,2′]bipyridinyl-3′-ylmethyl]-propionamide] had a pIC50 at VR1/TRPV1 receptor of 7.09. The pKi was 8.47 in assay [1] (read-out: Ki (rat) Cap.) and 8.38 at vanilloid receptor (VR1).
The corresponding values for `CC(C(=O)NCc1ccc(C(F)(F)F)nc1N1CCN(c2ccccc2F)CC1)c1ccc(NS(C)(=O)=O)c(F)c1` (stereo not shown) [Example 201, 2-(3-fluoro-4-methylsulfonamido-phenyl)-N-{2-[4-(2-fluoro-phenyl)-piperazin-1-yl]-6-trifluoromethyl-pyridin-3-ylmethyl}-propionamide] are 7.47, 8.92 and 8.62.
`CC(C(=O)NCc1ccc(C(F)(F)F)nc1OCc1ccccn1)c1ccc(NS(C)(=O)=O)c(F)c1` (stereo not shown) [Example 202, 2-(3-fluoro-4-methylsulfonamido-phenyl)-N-[2-(pyridin-2-ylmethoxy)-6-trifluoromethyl-pyridin-3-ylmethyl]-propionamide]: at VR1/TRPV1 receptor, the inhibition at 0.1 µM came out at 16% and the inhibition at 1 µM is 30%. Further, the pKi in assay [1] (Ki (rat) Cap.) was 7.61. At vanilloid receptor (VR1), the pKi is 7.53.
For the compound `Cc1cc(C(C)C(=O)NCc2ccc(C(F)(F)F)nc2N2CCN(c3ccccc3)CC2)ccc1NS(C)(=O)=O` (stereo not shown) [Example 203, 2-(4-methylsulfonamido-3-methyl-phenyl)-N-[2-(4-phenyl-piperazin-1-yl)-6-trifluoromethyl-pyridin-3-ylmethyl]-propionamide], the inhibition at 0.1 µM on VR1/TRPV1 receptor was 0%. Further, the inhibition at 1 µM on VR1/TRPV1 receptor was determined as 24%. Also, the pKi is 8.48 in assay [1] (read-out: Ki (rat) Cap.) and 8.52 at vanilloid receptor (VR1).
Regarding `Cc1cc(C(C)C(=O)NCc2ccc(C(F)(F)F)nc2OCc2ccccc2)ccc1NS(C)(=O)=O` (stereo not shown) [Example 204, N-(2-benzyloxy-6-trifluoromethyl-pyridin-3-ylmethyl)-2-(4-methylsulfonamido-3-methyl-phenyl)-propionamide], the pIC50 against VR1/TRPV1 receptor is 6.83. The pKi in assay [1] (read-out: Ki (rat) Cap.) was 8.80; on vanilloid receptor (VR1), 8.40.
In the same order, the values of `CC(C(=O)NCc1ccc(C(F)(F)F)nc1N(C)c1ccccc1)c1ccc(NS(C)(=O)=O)c(F)c1` (stereo not shown) [Example 205, 2-(3-fluoro-4-methylsulfonamido-phenyl)-N-[2-(methyl-phenyl-amino)-6-trifluoromethyl-pyridin-3-ylmethyl]-propionamide] are 7.24, 7.94 and 9.05.
In the case of `CC(C(=O)NCc1ccc(C(F)(F)F)nc1OCc1ccc(C(F)(F)F)cc1)c1ccc(NS(C)(=O)=O)c(F)c1` (stereo not shown) [Example 206, 2-(3-fluoro-4-methylsulfonamido-phenyl)-N-[6-trifluoromethyl-2-(4-trifluoromethyl-benzyloxy)-pyridin-3-ylmethyl]-propionamide], the pIC50 against VR1/TRPV1 receptor is 7.18. Also, the results for the pKi (in assay [1] (Ki (rat) Cap.); at vanilloid receptor (VR1)) were 9.15 and 8.49, respectively.
In the case of `CC(C(=O)NCc1ccc(C(F)(F)Cl)nc1N1CCN(c2ccccc2)CC1)c1ccc(NS(C)(=O)=O)c(F)c1` (stereo not shown) [Example 207], the pIC50 at VR1/TRPV1 receptor was 7.41. Further, the pKi (in assay [1] (read-out: Ki (rat) Cap.); on vanilloid receptor (VR1)) was 9.10 throughout.
Take `CC(C)COc1nc(C(F)(F)Cl)ccc1CNC(=O)C(C)c1ccc(NS(C)(=O)=O)c(F)c1` (stereo not shown) [Example 208, N-[6-(chloro-difluoro-methyl)-2-isobutoxy-pyridin-3-ylmethyl]-2-(3-fluoro-4-methylsulfonamido-phenyl)-propionamide]: the pIC50 at VR1/TRPV1 receptor was 7.41. Moreover, the pKi in assay [1] (read-out: Ki (rat) Cap.) is 9.30; on vanilloid receptor (VR1), 9.22.
The corresponding values for `CC(C(=O)NCc1ccc(C(F)(F)F)nc1N1CCC(C)(C)CC1)c1ccc(NS(C)(=O)=O)c(F)c1` (stereo not shown) [Example 210, N-(4,4-dimethyl-6′-trifluoromethyl-3,4,5,6-tetrahydro-2H-[1,2′]bipyridinyl-3′-ylmethyl)-2-(3-fluoro-4-methylsulfonamido-phenyl)-propionamide] are 8.10, 9.70 and 9.52.
In the same order, the values of `CC(C(=O)NCc1ccc(C(F)(F)F)nc1OCc1cccnc1)c1ccc(NS(C)(=O)=O)c(F)c1` (stereo not shown) [Example 211, 2-(3-fluoro-4-methylsulfonamido-phenyl)-N-[2-(pyridin-3-ylmethoxy)-6-trifluoromethyl-pyridin-3-ylmethyl]-propionamide] are 5.46, 7.52 and 6.85.
In the case of `CC(C(=O)NCc1ccc(C(F)(F)F)nc1N1CCN(c2ncccc2C(F)(F)F)CC1)c1ccc(NS(C)(=O)=O)c(F)c1` (stereo not shown) [Example 212, 2-(3-fluoro-4-methylsulfonamido-phenyl)-N-{6-trifluoromethyl-2-[4-(3-trifluoromethyl-pyridin-2-yl)-piperazin-1-yl]-pyridin-3-ylmethyl}-propionamide], at VR1/TRPV1 receptor, the inhibition at 0.1 µM stood at 11% and the inhibition at 1 µM came to 33%. Besides, the pKi in assay [1] (read-out: Ki (rat) Cap.) was 8.44. Further, on vanilloid receptor (VR1), the pKi was 8.38.
